Measured values taken from patent EP4324461A1, “(E)-N-CINAMOYLAMINOALKANOLES WITH MELANOGENESIS INHIBITORY ACTIVITY” (UNIWERSYTET JAGIELLONSKI, priority 2022, dated 2024).
Read-outs that look alike come from different tables or passages of the source.

Columns and labels:
[1] = Lipophilicity coefficient RM0 by reversed phase thin layer chromatography; format: physicochemical; conditions: RP-18 TLC, methanol / 100 mM phosphate buffer pH = 7.4
Protocol: Confirmation of the identity and purity of the obtained compounds consisted in the registration and interpretation of ^1H NMR and ^13C NMR spectra (the spectra were recorded using an ECZR 500 MHz (JEOL) series FT-NMR spectrophotometer), as well as the registration and interpretation of LC-MS spectra (the spectra were recorded using Acquita UPLC system (Waters) coupled with a Waters TQD mass spectrometer). The melting point was measured using the open capillary method in the IA9300 device (Electrothermal). The lipophilicity coefficient RM0 was determined by reversed phase thin layer chromatography. In the study, aluminum plates 20x20 cm covered with modified silica gel RP-18 F254 (Merck) were used as the solid phase. The mobile phase consisted of solutions of methanol and 100 mM phosphate buffer (pH = 7.4), characterized by a variable methanol content ranging from 95 to 65% (v/v). The tested compounds were dissolved in methanol to obtain solutions with a concentration of 1 mg/mL. Then, 5 µL of the solutions prepared in this way were transferred to the starting line on aluminum plates, which were then placed in chromatographic chambers previously saturated with mobile phase vapors for at least 1 hour. All activities, including the development of chromatograms, were carried out at room temperature. After developing the chromatograms to approximately 1-2 cm from the end of the plate, the plates were dried and then the distance traveled by the tested compounds was visualized under UV light (λ = 254 nm). The experiment was performed in duplicate for the specified conditions. For all samples, Rf was calculated according to the formula Rf = a/b, where a - the distance traveled by the tested compound, b - the distance traveled by the mobile phase. Then, the RM parameter was calculated for all samples according to the formula RM = log(1/Rf - 1), obtaining a linear relationship between the RM values and the methanol concentration in the mobile phase. The logP coefficient was also calculated using the following computer programs: ACD/ChemSketch 2020.1.2 and ChemDraw 20.0.0.41. Table 2. The physicochemical data of the compounds are presented below

tyrosinase from mushroom = assay: Inhibition of commercial mushroom tyrosinase (L-DOPA or L-tyrosine substrate); format: biochemical
Protocol: The following substrates were used for the enzymatic reaction: L-tyrosine and L-3,4-dihyroxyphenylalanine (L-DOPA). Both substrates were used in independent experiments. According to the literature, the use of L-DOPA enables the assessment of tyrosinase diphenolase activity, and L-tyrosine - the tyrosinase monophenolase activity. The determinations were performed in 96-well plates, in each well there was placed: 170 µL or 127.5 µL of 50 mM phosphate buffer (pH = 6.8) with tyrosinase (1U/well or 3U/well) and 10 µL of a solution of the tested compound in DMSO (the final concentration in the well was 500 µM, 250 µM or 125 µM). The negative control used 10 µL of pure solvent (DMSO). To initiate the reaction, an appropriate substrate was added: L-tyrosine (62.5 µL of solution in phosphate buffer) or L-DOPA (20 µL of solution in phosphate buffer). After a 25-minute incubation, the absorbance was measured at 475 nm using a microplate reader. The percentage of inhibition of tyrosinase activity was calculated using the formula: [(AC -AT)/AC] × 100, where AC - is the absorbance of the negative control, AT - is the absorbance of the sample containing the tested compound.

[2] = test system: B16-F10 murine melanoma cell line; assay: Cytotoxicity in B16-F10 cells (MTT); format: cell-based; conditions: 48 h
Protocol: In order to determine safe doses of compounds for testing the inhibition of melanogenesis in a murine melanoma cell line, cytotoxicity tests were performed. Cytotoxicity was determined by the colorimetric method using MTT ([3-(4,5-dimethyl-2-thiazolyl)-2,5-diphenyl-2H-tetrazolium bromide, Sigma M5655). For this purpose, cells were transferred to 96-well plates in an amount of 5000/well. After 24 h of culture in an incubator in F 10-Ham medium with 1% FBS, the tested compounds at various concentrations were added to the wells together with fresh medium. DMSO was added to the medium in a negative control. The MTT test was performed after further culture for 48 h. Then the medium was removed and the formed formazan crystals were dissolved in DMSO. The absorbance was measured at 570 nm in a plate reader and the result was compared to the control (DMSO), which was 100%. The percentage of viability was calculated using the formula: [AT/AC^∗100], where AT is the absorbance of the test sample, AC - absorbance of the control sample. Table 3. Results of inhibiting the activity of monophenolase […] tyrosinase and cytotoxicity testing in B16F10 cells for the described compounds.

| SMILES | RM0 [1] | Tyrosinase inhibition with L-DOPA [%] (tyrosinase from mushroom; L-DOPA) | IC50 (tyrosinase from mushroom; L-DOPA, read-out: Tyrosinase inhibition with L-DOPA, IC50) [µM] | Tyrosinase inhibition with L-tyrosine [%] (tyrosinase from mushroom; L-tyrosine) | IC50 (tyrosinase from mushroom; L-tyrosine, read-out: Tyrosinase inhibition with L-tyrosine, IC50) [µM] | Cytotoxicity study in B16F10 cells % viability ([2]; 12.5 µM) [%] | Cytotoxicity study in B16F10 cells % viability ([2]; 25 µM) [%] | Cytotoxicity study in B16F10 cells % viability ([2]; 50 µM) [%] | Cytotoxicity study in B16F10 cells % viability ([2]; 150 µM) [%] | Cytotoxicity study in B16F10 cells % viability ([2]; 200 µM) [%] | Cytotoxicity study in B16F10 cells % viability ([2]; 250 µM) [%] | Tyrosinase inhibition with L-DOPA [%] (tyrosinase from mushroom; L-DOPA, 125 µM) | Tyrosinase inhibition with L-tyrosine [%] (tyrosinase from mushroom; L-tyrosine, 125 µM) |
| --- | --- | --- | --- | --- | --- | --- | --- | --- | --- | --- | --- | --- | --- |
| O=C(/C=C/c1ccc(Cl)cc1)NCCCCO [H-331/21, (2E)-3-(4-chlorophenyl)-N-(4-hydroxybutyl)prop-2-enamide] | 2.14 | 64.31±0.21% (500 µM) | 153 | 82.50±0.87% (500 µM) | 103 | 49.0 | 47.8 | 54.2 | 32.7 | 51.9 | 52.7 | – | – |
| O=C(/C=C/c1ccc(Cl)cc1Cl)NCCCCCO [H-297/20, (2E)-3-(2,4-dichlorophenyl)-N-(5-hydroxypentyl)prop-2-enamide] | 3.08 | 20.53±2.84% (500 µM) | – | 19.09±2.53% (500 µM) | – | – | – | – | 102.3 | 73.6 | 88.5 | – | – |
| CCC(CO)NC(=O)/C=C/c1ccc(C)cc1 (centres unmarked) [H-409/21, (2E)-N-(1-hydroxybutan-2-yl)-3-(4-methylphenyl)prop-2-enamide] | 2.49 | 21.81±2.31% (500 µM) | – | 15.31±8.27% (500 µM) | – | – | – | – | 83.2 | 95.3 | 103.4 | – | – |
| CCC(CO)NC(=O)/C=C/c1ccc(Cl)cc1Cl (centres unmarked) [H-285/20, (2E)-3-(2,4-dichlorophenyl)-N-(1-hydroxybutan-2-yl)prop-2-enamide] | 3.08 | 0.21±5.64% (500 µM) | – | 14.56±1.63% (500 µM) | – | – | – | – | 84.2 | 74.8 | 24.6 | – | – |
| O=C(/C=C/c1ccc(Cl)cc1)NCCCCCCO [H-426/21, (2E)-3-(4-chlorophenyl)-N-(6-hydroxyhexyl)prop-2-enamide] | 3.02 | – | – | – | – | – | – | – | 30.3 | 28.2 | 28.3 | 30.66±1.82% (125 µM) | 39.89±3.21% (125 µM) |
| CCC(O)CNC(=O)/C=C/c1ccc(Cl)cc1Cl (centres unmarked) [H-320/21, (2E)-3-(2,4-dichlorophenyl)-N-(2-hydroxybutyl)prop-2-enamide] | 3.08 | 5.8±3.04% (500 µM) | – | 24.43±8.05% (500 µM) | – | – | – | – | 101.7 | 90.8 | 33.9 | – | – |
| O=C(/C=C/c1ccccc1)NCCO [H-429/21, (2E)-N-(2-hydroxyethyl)-3-phenylprop-2-enamide] | 1.27 | 30.54±1.20% (500 µM) | – | 21.00±8.83% (500 µM) | – | – | – | – | 86.4 | 79.8 | 80.9 | – | – |
| Cc1ccc(/C=C/C(=O)NC(C)CO)cc1 (centres unmarked) [Compound A-69, (2E)-N-(1-hydroxypropan-2-yl)-3-(4-methylphenyl)prop-2-enamide] | 2.17 | 22.96±6.64% (500 µM) | – | 4.40±7.15% (500 µM) | – | – | – | – | 96.6 | 101.3 | 97.5 | – | – |
